Where two headings read alike, the source gives them in different places. One block for each compound: values may come before it.
Columns and labels:
5-lipoxygenase = target: T1, 5-lipoxygenase (Rattus norvegicus, UniProt P12527); experiment: ARBL whole cell 5-lipoxygenase assay (inhibition of LTB4 formation in RBL-1 cells); assay type: cell-based; settings: for IC50: A23187 stimulated, read-out: ARBL: IC50 (50% inhibition of LTB4 formation)
T1 construct: host or cells: RBL-1 (rat basophilic leukemia)
T1 sequence (P12527 1-673): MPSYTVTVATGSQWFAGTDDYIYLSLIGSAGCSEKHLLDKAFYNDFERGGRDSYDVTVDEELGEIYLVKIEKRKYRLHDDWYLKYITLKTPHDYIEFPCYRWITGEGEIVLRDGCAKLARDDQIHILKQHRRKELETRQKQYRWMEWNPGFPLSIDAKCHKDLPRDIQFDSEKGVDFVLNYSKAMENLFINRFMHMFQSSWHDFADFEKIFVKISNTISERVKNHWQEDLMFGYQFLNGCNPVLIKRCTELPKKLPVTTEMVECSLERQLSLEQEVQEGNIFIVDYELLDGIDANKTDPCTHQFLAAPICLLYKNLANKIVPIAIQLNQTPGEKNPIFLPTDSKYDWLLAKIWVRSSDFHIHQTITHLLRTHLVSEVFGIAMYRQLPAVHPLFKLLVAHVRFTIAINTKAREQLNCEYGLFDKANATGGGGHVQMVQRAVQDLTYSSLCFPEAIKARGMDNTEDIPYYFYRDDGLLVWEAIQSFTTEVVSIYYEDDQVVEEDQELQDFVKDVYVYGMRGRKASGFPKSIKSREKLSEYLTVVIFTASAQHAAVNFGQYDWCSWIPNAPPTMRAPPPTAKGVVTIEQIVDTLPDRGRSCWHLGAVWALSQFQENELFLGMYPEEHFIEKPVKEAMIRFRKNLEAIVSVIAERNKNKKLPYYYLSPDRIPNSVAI
Description: (§1) The rat basophilic leukemia cell line (RBL-1) was obtained from the American Type Culture Collection (Rockville, Md.).
(§2) Radioimmunoassay (RIA) kits of LTB4 and PGF2α were obtained from Amersham (Arlington Heights, Ill.) and Seragen (Boston, Mass.), respectively.
(§3) All tissue culture media were obtained from GIBCO (Grand Island, N.Y.).
(§4) RBL-1 cells are grown in suspension culture in Eagles minimum essential medium supplemental with 12% fetal bovine serum at 37° C. in an incubator supplied with air--5% carbon dioxide. Cells are harvested by centrifugation. They are washed with cold phosphate-buffered saline, pH 7.4 (PBS; NaCl, 7.1 g; Na2 HPO4, 1.15 g; KH2 PO4, 0.2 g; and KCl, 0.2 g/L). Cells are incubated with and without test agent (in DMSO) (1% DMSO is without effect on arachidonic acid metabolism) for 10 minutes at room temperature. Calcium ionophore A23187 (5 μM) is added and cells are incubated for 7 minutes at 37° C. The reaction is stopped by chilling the tubes on ice for 10 minutes. Cells are finally suspended in PBS containing 1.0 mM calcium at a density of 2×10^6 cells/mL. Cells are separated by centrifugation and the supernatant is stored at -20° C. Aliquots (100 μL) are analyzed for LTB4 and PGF2α using radioimmunoassay kits as provided by the supplier.
(§5) Table 1 contains biochemical data for compounds of formula I obtained from this whole cell assay as IC50 s which are calculated as the concentration of a test compound in micromoles (μM) causing 50% inhibition of LTB4 or PGF2α formation.

cyclooxygenase = target: T2, cyclooxygenase (Rattus norvegicus, UniProt Q63921); experiment: ARBC whole cell cyclooxygenase assay (inhibition of PGF2α formation in RBL-1 cells); assay type: cell-based; settings: for IC50: A23187 stimulated, Table 2 (formula II), read-out: ARBC: IC50 (50% inhibition of PGF2α formation)
T2 construct: host or cells: RBL-1 (rat basophilic leukemia)
T2 sequence (Q63921 27-602): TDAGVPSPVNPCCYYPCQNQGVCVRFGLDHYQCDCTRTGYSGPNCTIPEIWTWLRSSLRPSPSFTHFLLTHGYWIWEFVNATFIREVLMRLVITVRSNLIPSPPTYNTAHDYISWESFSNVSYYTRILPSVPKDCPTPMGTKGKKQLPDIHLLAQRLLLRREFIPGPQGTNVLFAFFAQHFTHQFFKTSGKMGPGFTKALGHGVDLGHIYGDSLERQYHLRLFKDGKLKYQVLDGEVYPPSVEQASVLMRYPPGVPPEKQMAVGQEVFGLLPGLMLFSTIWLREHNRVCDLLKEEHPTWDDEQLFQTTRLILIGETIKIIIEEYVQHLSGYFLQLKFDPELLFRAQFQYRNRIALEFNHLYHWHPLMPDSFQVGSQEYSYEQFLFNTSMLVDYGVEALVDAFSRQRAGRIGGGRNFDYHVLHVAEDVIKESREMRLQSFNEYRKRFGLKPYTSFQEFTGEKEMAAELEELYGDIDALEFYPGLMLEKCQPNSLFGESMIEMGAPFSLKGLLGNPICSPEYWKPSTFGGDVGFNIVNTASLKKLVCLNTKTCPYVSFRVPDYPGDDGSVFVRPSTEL
Description: as §1, §2, §3, §4, §5

[1] = read-out: ARBL: % inhibition of LTB4 at 10 μM, 10 μM, A23187 stimulated, Table 2 (formula II)
[2] = read-out: ARBC: % inhibition of PGF2α at 10 μM, 10 μM, A23187 stimulated, Table 2 (formula II)
[3] = read-out: ARBC: % inhibition of PGF2α at 10 μM, 10 μM, A23187 stimulated, Table 1 (formula I)
[4] = read-out: ARBL: % inhibition of LTB4 at 10 μM, 10 μM, A23187 stimulated, Table 1 (formula I)

inhibition at 10 µM (5-lipoxygenase; [1]): < 40%
inhibition at 10 µM (cyclooxygenase; [2]): < 40%
SMILES: O=C1NC(=S)S/C1=C\c1ccccc1Nc1cccc(C(F)(F)F)c1 [Example 2, (Z)-2-Thioxo-5-[[2-[[3-(trifluoromethyl)phenyl]amino]phenyl]methylene]-4-thiazolidinone]

inhibition at 10 µM (5-lipoxygenase; [1]): 100%
inhibition at 10 µM (cyclooxygenase; [2]): < 40%
SMILES: CSC1=NC(=O)/C(=C/c2ccccc2Nc2c(Cl)ccc(C)c2Cl)S1 [Example 6, (Z)-5-[[2-[(2,6-Dichloro-3-methylphenyl)amino]phenyl]methylene]-2-(methylthio)-4(5H)-thiazolone]

IC50 (5-lipoxygenase; Table 1 (formula I)): 2180 nM
inhibition at 10 µM (cyclooxygenase; [3]): < 40%
SMILES: Cc1ccc(Cl)c(Nc2ccccc2/C=C2\SC(=S)N(CC(=O)O)C2=O)c1Cl [Example 10, (Z)-5-[[2-[[2-Dichloro-3-methylphenyl)-amino]phenyl]methylene]-4-oxo-2-thioxo-3-thiazolidine acetic acid]

IC50 (5-lipoxygenase; Table 2 (formula II)): 1480 nM
IC50 (cyclooxygenase): 10200 nM
SMILES: Cc1ccc(Cl)c(Nc2ccccc2/C=C2\SC(NC#N)=NC2=O)c1Cl [Example 8]

inhibition at 10 µM (5-lipoxygenase; [1]): < 40%
inhibition at 10 µM (cyclooxygenase; [2]): < 40%
SMILES: O=C1NC(=O)/C(=C/c2ccccc2Nc2cccc(C(F)(F)F)c2)S1 [Example 9, (Z)-5-[[2-[[3-(Trifluoromethyl)phenyl]amino]phenyl]methylene]-2,4-thiazolidinedione]

inhibition at 10 µM (5-lipoxygenase; [1]): 55%
inhibition at 10 µM (cyclooxygenase; [2]): < 40%
SMILES: Cc1ccc(Cl)c(Nc2ccccc2/C=C2\SC(=O)NC2=O)c1Cl [Example 7, (Z)-5-[[2-[(2,6-Dichloro-3-methylphenyl)amino]phenyl]methylene]-2,4-thiazolidinedinone]

inhibition at 10 µM (5-lipoxygenase; [4]): < 40%
inhibition at 10 µM (cyclooxygenase; [3]): < 40%
SMILES: CN1C(=O)/C(=C/c2ccccc2Nc2cccc(C(F)(F)F)c2)SC1=S [Example 4]

inhibition at 10 µM (5-lipoxygenase; [1]): < 40%
inhibition at 10 µM (cyclooxygenase; [2]): < 40%
SMILES: Cc1ccc(Cl)c(Nc2ccccc2/C=C2\SC(=N)NC2=O)c1Cl [Example 5, (Z)-5-[[2-[(2,6-Dichloro-3-methylphenyl)amino]phenyl]methylene]-2-imino-4-thiazolidinone]

IC50 (5-lipoxygenase; Table 2 (formula II)): 1470 nM
IC50 (cyclooxygenase): 2250 nM
SMILES: CC(C)(C)c1cc(Nc2ccccc2/C=C2\SC(=S)NC2=O)cc(C(C)(C)C)c1O [Example 12]

inhibition at 10 µM (5-lipoxygenase; [4]): 100%
inhibition at 10 µM (cyclooxygenase; [3]): < 40%
SMILES: Cc1ccc(Cl)c(Nc2ccccc2/C=C2\SC(=S)N(C)C2=O)c1Cl [Example 3, (Z)-5-[[2-[(2,6-Dichloro-3-methylphenyl)amino]phenyl]methylene]-3-methyl-2-thioxo-4-thiazolidinone]

IC50 (5-lipoxygenase; Table 2 (formula II)): 820 nM
IC50 (cyclooxygenase): 5960 nM
SMILES: Cc1ccc(Cl)c(Nc2ccccc2/C=C2\SC(=S)NC2=O)c1Cl [Example 1, (Z)-5-[[2-[(2,6-Dichloro-3-methylphenyl)amino]phenyl]methylene]-2-thioxo-4-thiazolidinone]

From patent US5143929A, “2-substituted thiazolidinone, oxazolidinone, and imidazolidinone derivatives of fenamates as antiinflammatory agents” (Warner-Lambert Company, priority 1991, dated 1992)
